# Values quoted from earlier work as cited in US20120046368A1, “METHOD FOR PURIFYING 3,4-DIHYDROXYPHENYLGLYCOL (DHPG) FROM PLANT PRODUCTS” (CONSEJO SUPERIOR DE INVESTIGACIONES CIENTIFICAS, priority 2008, published 2012).
# Experiments:
# [1] = compared with HT
# [2] = fold greater than ascorbic acid or HT
compound,measurement,setting,value
"OCC(O)c1ccc(O)c(O)c1 (centres unmarked) [DHPG, 3,4-dihydroxyphenylglycol]",antioxidant efficacy in a lipid medium relative to HT,[1],twice that of HT
same,antioxidant efficacy in water relative to ascorbic acid or HT,[2],2-3 times
